Where two headings read alike, the source gives them in different places.
Tests used:
KRAS G12A = target: T1, KRAS G12A (Homo sapiens, UniProt P01116, G12A); experiment: Cellular KRAS:RAF Disruption Assay (NanoBRET), KRAS G12A; format: cell-based; settings: HEK293 T cells co-expressing RAF1 and KRAS G12A, 24 hours; read-out: RAS::RAF binding via NanoBRET IC50, KRAS G12A
T1 construct: expressed in transfected cells
Procedure: (§1) Cellular KRAS:RAF Disruption Assay
(§2) Stable cell lines (HEK293 T) were generated to co-express RAF1 and mutant or wild type KRAS, as indicated, using the BiBRET vector (Promega). Engineered cell lines were suspended in media (OptiMEM, […]), plated in 384-well plates (8000 cells/well), and allowed to rest for 1.5 hours. Cells were treated with compounds for 24 hours, and NanoBRET NanoGlo substrate (Promega) was added per the manufacturer's instructions.

KRAS G12C = target: T2, KRAS G12C (Homo sapiens, UniProt P01116, G12C); experiment: Cellular KRAS:RAF Disruption Assay (NanoBRET), KRAS G12C; format: cell-based; settings: HEK293 T cells co-expressing RAF1 and KRAS G12C, 24 hours; read-out: RAS::RAF binding via NanoBRET IC50, KRAS G12C
T2 construct: expressed in transfected cells
T2 sequence (P01116 1-188 isoform P01116-2 G12C): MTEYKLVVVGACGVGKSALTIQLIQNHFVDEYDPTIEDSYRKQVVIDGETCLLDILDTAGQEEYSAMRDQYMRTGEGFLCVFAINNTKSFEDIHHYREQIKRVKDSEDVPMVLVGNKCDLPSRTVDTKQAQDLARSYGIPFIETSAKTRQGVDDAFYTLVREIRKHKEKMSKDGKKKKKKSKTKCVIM
Procedure: as §1, §2

KRAS G12V = target: T3, KRAS G12V (Homo sapiens, UniProt P01116, G12V); experiment: Cellular KRAS:RAF Disruption Assay (NanoBRET), KRAS G12V; format: cell-based; settings: HEK293 T cells co-expressing RAF1 and KRAS G12V, 24 hours; read-out: RAS::RAF binding via NanoBRET IC50, KRAS G12V
T3 construct: expressed in transfected cells
T3 sequence (P01116 1-188 isoform P01116-2 G12V): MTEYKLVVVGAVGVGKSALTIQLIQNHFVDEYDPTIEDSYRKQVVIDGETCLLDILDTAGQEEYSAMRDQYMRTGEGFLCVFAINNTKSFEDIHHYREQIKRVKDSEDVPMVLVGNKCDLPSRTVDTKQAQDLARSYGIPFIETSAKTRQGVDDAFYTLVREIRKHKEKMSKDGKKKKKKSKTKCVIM
Procedure: as §1, §2

KRAS G13D = target: T4, KRAS G13D (Homo sapiens, UniProt P01116, G13D); experiment: Cellular KRAS:RAF Disruption Assay (NanoBRET), KRAS G13D; format: cell-based; settings: HEK293 T cells co-expressing RAF1 and KRAS G13D, 24 hours; read-out: RAS::RAF binding via NanoBRET IC50, KRAS G13D
T4 construct: expressed in transfected cells
T4 sequence (P01116 1-188 isoform P01116-2 G13D): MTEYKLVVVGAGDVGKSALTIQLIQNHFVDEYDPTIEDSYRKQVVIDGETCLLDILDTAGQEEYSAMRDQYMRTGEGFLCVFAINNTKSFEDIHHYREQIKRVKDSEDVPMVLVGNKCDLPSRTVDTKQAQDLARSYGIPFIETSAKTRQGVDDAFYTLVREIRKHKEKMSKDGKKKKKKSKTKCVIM
Procedure: as §1, §2

KRAS WT = target: T5, KRAS WT (Homo sapiens, UniProt P01116); experiment: Cellular KRAS:RAF Disruption Assay (NanoBRET), KRAS WT; format: cell-based; settings: HEK293 T cells co-expressing RAF1 and wild type KRAS, 24 hours; read-out: RAS::RAF binding via NanoBRET IC50, KRAS WT
T5 construct: expressed in transfected cells
T5 sequence (P01116 1-188 isoform P01116-2): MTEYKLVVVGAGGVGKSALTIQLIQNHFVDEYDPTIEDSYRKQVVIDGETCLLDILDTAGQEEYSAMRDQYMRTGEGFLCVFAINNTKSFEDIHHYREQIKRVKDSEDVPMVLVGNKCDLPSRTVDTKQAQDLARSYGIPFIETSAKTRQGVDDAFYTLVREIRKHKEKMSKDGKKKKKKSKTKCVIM
Procedure: as §1, §2

KRAS G12R = target: T6, KRAS G12R (Homo sapiens, UniProt P01116, G12R); experiment: Cellular KRAS:RAF Disruption Assay (NanoBRET), KRAS G12R; format: cell-based; settings: HEK293 T cells co-expressing RAF1 and KRAS G12R, 24 hours; read-out: RAS::RAF binding via NanoBRET IC50, KRAS G12R
T6 construct: expressed in transfected cells
T6 sequence (P01116 1-188 isoform P01116-2 G12R): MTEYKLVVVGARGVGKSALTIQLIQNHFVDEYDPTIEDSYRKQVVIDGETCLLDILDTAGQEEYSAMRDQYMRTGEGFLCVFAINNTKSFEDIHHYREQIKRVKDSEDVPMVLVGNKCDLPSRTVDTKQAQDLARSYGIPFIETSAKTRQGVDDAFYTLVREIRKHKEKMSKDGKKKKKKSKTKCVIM
Procedure: as §1, §2

KRAS G12S = target: T7, KRAS G12S (Homo sapiens, UniProt P01116, G12S); experiment: Cellular KRAS:RAF Disruption Assay (NanoBRET), KRAS G12S; format: cell-based; settings: HEK293 T cells co-expressing RAF1 and KRAS G12S, 24 hours; read-out: RAS::RAF binding via NanoBRET IC50, KRAS G12S
T7 construct: expressed in transfected cells
T7 sequence (P01116 1-188 isoform P01116-2 G12S): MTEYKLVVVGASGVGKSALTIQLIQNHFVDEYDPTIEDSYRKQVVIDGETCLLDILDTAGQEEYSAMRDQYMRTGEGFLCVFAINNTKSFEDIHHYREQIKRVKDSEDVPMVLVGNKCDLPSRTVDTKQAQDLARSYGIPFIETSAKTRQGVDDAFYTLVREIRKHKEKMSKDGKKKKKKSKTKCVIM
Procedure: as §1, §2

KRAS Q61H = target: T8, KRAS Q61H (Homo sapiens, UniProt P01116, Q61H); experiment: Cellular KRAS:RAF Disruption Assay (NanoBRET), KRAS Q61H; format: cell-based; settings: HEK293 T cells co-expressing RAF1 and KRAS Q61H, 24 hours; read-out: RAS::RAF binding via NanoBRET IC50, KRAS Q61H
T8 construct: expressed in transfected cells
T8 sequence (P01116 1-188 isoform P01116-2 Q61H): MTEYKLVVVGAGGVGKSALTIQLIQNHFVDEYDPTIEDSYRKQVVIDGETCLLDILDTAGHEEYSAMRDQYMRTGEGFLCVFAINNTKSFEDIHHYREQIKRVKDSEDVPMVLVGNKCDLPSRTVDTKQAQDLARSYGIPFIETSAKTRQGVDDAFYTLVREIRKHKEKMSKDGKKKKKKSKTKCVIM
Procedure: as §1, §2

KRAS Q61R = target: T9, KRAS Q61R (Homo sapiens, UniProt P01116, Q61R); experiment: Cellular KRAS:RAF Disruption Assay (NanoBRET), KRAS Q61R; format: cell-based; settings: HEK293 T cells co-expressing RAF1 and KRAS Q61R, 24 hours; read-out: RAS::RAF binding via NanoBRET IC50, KRAS Q61R
T9 construct: expressed in transfected cells
T9 sequence (P01116 1-188 isoform P01116-2 Q61R): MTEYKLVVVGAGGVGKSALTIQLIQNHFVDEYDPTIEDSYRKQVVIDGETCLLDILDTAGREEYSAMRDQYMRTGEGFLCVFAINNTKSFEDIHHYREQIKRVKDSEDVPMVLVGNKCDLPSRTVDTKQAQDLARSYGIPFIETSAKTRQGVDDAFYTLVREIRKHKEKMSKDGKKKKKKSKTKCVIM
Procedure: as §1, §2

KRAS A146T = target: T10, KRAS A146T (Homo sapiens, UniProt P01116, A146T); experiment: Cellular KRAS:RAF Disruption Assay (NanoBRET), KRAS A146T; format: cell-based; settings: HEK293 T cells co-expressing RAF1 and KRAS A146T, 24 hours; read-out: RAS::RAF binding via NanoBRET IC50, KRAS A146T
T10 construct: expressed in transfected cells
T10 sequence (P01116 1-188 isoform P01116-2 A146T): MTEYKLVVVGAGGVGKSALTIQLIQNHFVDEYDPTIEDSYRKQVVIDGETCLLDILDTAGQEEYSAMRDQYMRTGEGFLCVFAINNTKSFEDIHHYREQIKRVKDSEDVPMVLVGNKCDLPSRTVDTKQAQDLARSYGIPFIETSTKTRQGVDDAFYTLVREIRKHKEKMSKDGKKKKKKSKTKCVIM
Procedure: as §1, §2

KRAS G12D [1] = target: T11, KRAS G12D (Homo sapiens, UniProt P01116, G12D); experiment: biochemical
T11 sequence (P01116 1-188 isoform P01116-2 G12D): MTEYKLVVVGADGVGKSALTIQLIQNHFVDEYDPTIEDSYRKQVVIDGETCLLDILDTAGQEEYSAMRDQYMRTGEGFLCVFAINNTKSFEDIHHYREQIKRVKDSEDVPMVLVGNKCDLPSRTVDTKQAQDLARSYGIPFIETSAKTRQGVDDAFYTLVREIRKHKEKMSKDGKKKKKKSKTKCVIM

KRAS G12D [2] = target: T11, KRAS G12D; experiment: biochemical; remark: listed apart in the source

T1 sequence (P01116 1-188 isoform P01116-2 G12A): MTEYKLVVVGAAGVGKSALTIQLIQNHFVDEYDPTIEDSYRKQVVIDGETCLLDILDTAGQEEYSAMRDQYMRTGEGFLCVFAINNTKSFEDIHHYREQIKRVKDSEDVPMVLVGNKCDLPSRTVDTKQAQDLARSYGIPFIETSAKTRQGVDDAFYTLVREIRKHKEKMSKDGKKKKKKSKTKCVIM

Row | Structure (SMILES) | IC50 (KRAS G12A) [nM] | IC50 (KRAS G12C) [nM] | IC50 (KRAS G12V) [nM] | IC50 (KRAS G13D) [nM] | IC50 (KRAS WT) [nM] | IC50 (KRAS G12R) [nM] | IC50 (KRAS G12S) [nM] | IC50 (KRAS Q61H) [nM] | IC50 (KRAS Q61R) [nM] | IC50 (KRAS A146T) [nM] | IC50 (KRAS G12D [1]) [nM] | IC50 (KRAS G12D [2]) [nM]
1 | C#Cc1c(F)ccc2cc(O)cc(-c3ncc4c(N5CCOCC5)nc(OC[C@@]56CCCN5C[C@H](F)C6)nc4c3F)c12 [Example 1-1, 4-(2-{[(2R,7aS)-2-fluoro-hexahydro-1H-pyrrolizin-7a-yl]methoxy}-8-fluoro-4-(morpholin-4-yl)pyrido[4,3-d]pyrimidin-7-yl)-5-ethynyl-6-fluoronaphthalen-2-ol] | 16 | 25 | 199 | 45 | 6 | 5300 | 29 | 99 | > 10000 | 76 |  | 
2 | C#Cc1c(F)ccc2cc(O)cc(-c3ncc4c(N5CCCOCC5)nc(OC[C@]56CCC[C@H]5N(C)CCC6)nc4c3F)c12 [Example 1-3, 4-(2-{[(4aS,7aR)-1-methyl-octahydro-1H-cyclopenta[b]pyridin-4a-yl]methoxy}-8-fluoro-4-(1,4-oxazepan-4-yl)pyrido[4,3-d]pyrimidin-7-yl)-5-ethynyl-6-fluoronaphthalen-2-ol] | 2 | 3 | 19 | 5 | 2 | 133 | 4 | 7 | 1460 | 16 | < 2 | < 2
3 | C#Cc1c(F)ccc2cc(O)cc(-c3ncc4c(N5C6COCC5C6)nc(OC[C@@]56CCCN5C[C@H](F)C6)nc4c3F)c12 [Example 1-35, 4-(2-{[(2R,7aS)-2-fluoro-hexahydro-1H-pyrrolizin-7a-yl]methoxy}-8-fluoro-4-{3-oxa-6-azabicyclo[3.1.1]heptan-6-yl}pyrido[4,3-d]pyrimidin-7-yl)-5-ethynyl-6-fluoronaphthalen-2-ol] | 10 | 12 | 32 | 22 | 13 | 4230 | 11 | 31 | > 10000 | 40 |  | 
4 | C#Cc1c(F)ccc2cc(O)cc(-c3ccc4c(N5CCCOCC5)nc(OC[C@@]56CCCN5C[C@H](F)C6)nc4c3F)c12 [Example 2-2, 4-(2-{[(2R,7aS)-2-fluoro-hexahydro-1H-pyrrolizin-7a-yl]methoxy}-8-fluoro-4-(1,4-oxazepan-4-yl)quinazolin-7-yl)-5-ethynyl-6-fluoronaphthalen-2-ol] | 3 | 5 | 26 | 8 | 2 | 204 | 6 | 16 | 2290 | 17 |  | 
5 | C#Cc1c(F)ccc2cc(O)cc(-c3ccc4c(N5CCCOCC5)nc(OC[C@]56CCC[C@H]5N(C)CCC6)nc4c3F)c12 [Example 2-3, 4-(2-{[(4aS,7aR)-1-methyl-octahydro-1H-cyclopenta[b]pyridin-4a-yl]methoxy}-8-fluoro-4-(1,4-oxazepan-4-yl)quinazolin-7-yl)-5-ethynyl-6-fluoronaphthalen-2-ol] | 18 | 24 | 172 | 49 | 11 | 1080 | 39 | 72 | > 5000 | 81 |  | 
6 | C#Cc1c(F)ccc2cc(O)cc(-c3ncc4c(N5CC6CCC(C5)N6C(=O)C5CC5)nc(OC[C@@]56CCCN5C[C@H](F)C6)nc4c3F)c12 [Example 6-2, 4-(2-{[(2R,7aS)-2-fluoro-hexahydro-1H-pyrrolizin-7a-yl]methoxy}-4-{8-cyclopropanecarbonyl-3,8-diazabicyclo[3.2.1]octan-3-yl}-8-fluoropyrido[4,3-d]pyrimidin-7-yl)-5-ethynyl-6-fluoronaphthalen-2-ol] | 29 | 117 | 405 | 72 | 69 | > 10000 | 109 | 234 | > 10000 | 179 | 900 | < 2

Further lines, results first:

Row | IC50 (KRAS G12A) [nM] | IC50 (KRAS G12C) [nM] | IC50 (KRAS G12V) [nM] | IC50 (KRAS G13D) [nM] | IC50 (KRAS WT) [nM] | IC50 (KRAS G12R) [nM] | IC50 (KRAS G12S) [nM] | IC50 (KRAS Q61H) [nM] | IC50 (KRAS Q61R) [nM] | IC50 (KRAS A146T) [nM] | IC50 (KRAS G12D [1]) [nM] | IC50 (KRAS G12D [2]) [nM] | Structure (SMILES)
7 | 144 | 367 | 680 | 199 | 40 | 7510 | 313 | 474 | > 10000 | 315 |  |  | C#Cc1c(F)ccc2cc(O)cc(-c3ccc4c(N5CC6CCC(C5)N6C(=O)C(F)(F)F)nc(OC[C@@]56CCCN5C[C@H](F)C6)nc4c3F)c12 [Example 7-3, 1-[3-(2-{[(2R,7aS)-2-fluoro-hexahydro-1H-pyrrolizin-7a-yl]methoxy}-7-(8-ethynyl-7-fluoro-3-hydroxynaphthalen-1-yl)-8-fluoroquinazolin-4-yl)-3,8-diazabicyclo[3.2.1]octan-8-yl]-2,2,2-trifluoroethan-1-one]
8 | 226 | 346 | > 5000 | 407 | 242 | > 5000 | 422 | 504 | > 5000 | 577 | 7 | < 2 | C#Cc1c(F)ccc2cc(O)cc(-c3ccc4c(N5CC6CCC(C5)N6C(=O)C(F)(F)F)nc(OC[C@]56CCC[C@H]5N(C)CCC6)nc4c3F)c12 [Example 7-7, 1-[3-(2-{[(4aS,7aR)-1-methyl-octahydro-1H-cyclopenta[b]pyridin-4a-yl]methoxy}-7-(8-ethynyl-7-fluoro-3-hydroxynaphthalen-1-yl)-8-fluoroquinazolin-4-yl)-3,8-diazabicyclo[3.2.1]octan-8-yl]-2,2,2-trifluoroethan-1-one]

— patent US20240199584A1, “KRAS INHIBITORS” (Bristol-Myers Squibb Company, priority 2022, published 2024)
